Results as given in publication PMC7151704, “4-Amino-1,2,4-triazole-3-thione as a Promising Scaffold for the Inhibition of Serine and Metallo-β-Lactamases” (Pharmaceuticals, 2020).

Experiments:
Test in all cases: nitrocefin hydrolysis, spectrophotometric; Ki from IC50 by Cheng-Prusoff
Type in all cases: biochemical
[1] = target: T1, VIM-1 (Pseudomonas aeruginosa, UniProt Q9XAY4)
T1 construct: gene blaVIM; recombinant untagged, pET-24a(+) blaVIM-1 (pBPAQND2009), E. coli BL21(DE3); High Q and Superdex 75; zinc-supplemented buffers

[2] = target: T2, IMP-1 (Pseudomonas aeruginosa, UniProt Q79MP6)
T2 construct: gene blaIMP-1; codon-optimised wild type gene, pETite N-His SUMO Kan, E. coli Lemo21(DE3); His-SUMO cleaved by SUMO protease; IMAC and Superose 12
T2 sequence (Q79MP6 19-246 limits assumed): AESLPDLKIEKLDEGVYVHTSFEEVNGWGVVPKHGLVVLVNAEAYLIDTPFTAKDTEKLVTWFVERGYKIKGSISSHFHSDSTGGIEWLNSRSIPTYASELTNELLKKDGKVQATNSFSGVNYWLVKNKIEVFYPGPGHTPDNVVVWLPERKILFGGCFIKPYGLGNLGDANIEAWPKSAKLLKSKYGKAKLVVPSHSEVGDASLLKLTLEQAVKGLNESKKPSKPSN

[3] = target: T3, KPC-2 (Klebsiella pneumoniae, UniProt Q9F663)
T3 construct: recombinant, 'full-length KPC-2 enzyme'
T3 sequence (Q9F663 25-293 limits assumed): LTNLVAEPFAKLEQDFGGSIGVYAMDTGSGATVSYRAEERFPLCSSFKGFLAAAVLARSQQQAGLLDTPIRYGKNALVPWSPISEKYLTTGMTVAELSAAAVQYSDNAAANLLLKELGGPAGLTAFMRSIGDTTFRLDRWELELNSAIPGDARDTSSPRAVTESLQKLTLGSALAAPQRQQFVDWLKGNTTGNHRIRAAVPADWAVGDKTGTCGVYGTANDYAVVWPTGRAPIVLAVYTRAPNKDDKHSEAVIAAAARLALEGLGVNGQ
Source text: nitrocefin hydrolysis, spectrophotometric; Ki from IC50 by Cheng-Prusoff on KPC-2

SMILES | Ki [1] | Ki [2] | Ki [3]
S=c1[nH]ncn1NCc1ccc2c(c1)OCO2 [1f, 4-((benzo[d][1,3]dioxol-5-ylmethyl)amino)-2,4-dihydro-3H-1,2,4-triazole-3-thione] | 120 ± 4 µM | 125 ± 5 µM | 138 ± 3 µM
S=c1[nH]ncn1/N=C/c1c[nH]c2ccccc12 [2g, 4-(((1H-indol-3-yl)methylene)amino)-2,4-dihydro-3H-1,2,4-triazole-3-thione] | 95 ± 3 µM | 104 ± 4 µM | 139 ± 4 µM
Sc1nncn1/N=C/c1ccc(Br)cc1 [2b, 4-((4-bromobenzylidene)amino)-2,4-dihydro-3H-1,2,4-triazole-3-thione] | 58 ± 2 µM | 285 ± 13 µM | 158 ± 7 µM
CCN(CC)c1ccc(CNn2cn[nH]c2=S)cc1 [1d, 4-((4-(diethylamino)benzyl)amino)-2,4-dihydro-3H-1,2,4-triazole-3-thione] | 224 ± 11 µM | 173 ± 6 µM | 263 ± 13 µM
